# Results published in ChEMBL document CHEMBL4334526, “Synthesis of Peptoid-Based Class I-Selective Histone Deacetylase Inhibitors with Chemosensitizing Properties” (J Med Chem, 2019).
# Tests used:
# [1] = biological target: Histone deacetylase 3/Nuclear receptor corepressor 2 (HDAC3/NCoR2) (Homo sapiens, UniProt O15379); test: biochemical; assay type: cell-based, Sf9
# Description: Inhibition of human recombinant full length C-terminal His-tagged HDAC3 (1 to 428 residues)/N-terminal GST-tagged NCOR2 (395 to 489 residues) expressed in baculovirus infected Sf9 insect cells using Boc-Lys(epsilon-acetyl)-AMC as substrate incubated for 90 mins by fluorescence assay
# [2] = biological target: Histone deacetylase 2 (Homo sapiens, UniProt Q92769); test: Inhibition of recombinant human full length C-terminal FLAG-tagged HDAC2 expressed in baculovirus infected Sf9 insect cells using Boc-Lys(epsilon-acetyl)-AMC as substrate incubated for 90 mins by fluorescence assay; assay type: cell-based
# [3] = system: A2780; test: Cytotoxicity against human A2780 cells assessed as reduction in cell survival measured after 72 hrs by MTT assay; assay type: functional, cell-based; conditions: A2780, 72 h
# [4] = biological target: T1, Class 1 histone deacetylase (Homo sapiens, UniProt Q13547+O15379+Q92769+Q9BY41); conditions: CAL-27
# Description: Inhibition of class 1 HDAC in human CAL27 cells assessed as potentiation of cisplatin-induced cytotoxicity by measuring combination index at 0.5 uM in presence of 1 uM cisplatin by MTT assay based Chou-Talalay analysis
# [5] = biological target: T1, Class 1 histone deacetylase; conditions: CAL-27; remark: listed apart in the source
# Description: Inhibition of class 1 HDAC in human CAL27 cells assessed as potentiation of cisplatin-induced cytotoxicity by measuring combination index at 0.5 uM in presence of 3.2 uM cisplatin by MTT assay based Chou-Talalay analysis
# [6] = biological target: T1, Class 1 histone deacetylase; conditions: CAL-27; remark: listed apart in the source
# Description: Inhibition of class 1 HDAC in human CAL27 cells assessed as potentiation of cisplatin-induced cytotoxicity by measuring combination index at 0.5 uM in presence of 10 uM cisplatin by MTT assay based Chou-Talalay analysis
# [7] = biological target: T1, Class 1 histone deacetylase
# [8] = biological target: T1, Class 1 histone deacetylase; remark: listed apart in the source
# Description: Inhibition of class 1 HDAC in human Cal27CisR cells assessed as potentiation of cisplatin-induced cytotoxicity by measuring combination index at 0.5 uM in presence of 1 uM cisplatin by MTT assay based Chou-Talalay analysis
# [9] = biological target: T1, Class 1 histone deacetylase; remark: listed apart in the source
# Description: Inhibition of class 1 HDAC in human Cal27CisR cells assessed as potentiation of cisplatin-induced cytotoxicity by measuring combination index at 0.5 uM in presence of 3.2 uM cisplatin by MTT assay based Chou-Talalay analysis
# [10] = biological target: T1, Class 1 histone deacetylase; remark: listed apart in the source
# Description: Inhibition of class 1 HDAC in human Cal27CisR cells assessed as potentiation of cisplatin-induced cytotoxicity by measuring combination index at 0.5 uM in presence of 10 uM cisplatin by MTT assay based Chou-Talalay analysis
# [11] = biological target: T1, Class 1 histone deacetylase; remark: listed apart in the source
# [12] = biological target: T1, Class 1 histone deacetylase; remark: listed apart in the source
# Description: Inhibition of class 1 HDAC in human Cal27CisR cells assessed as potentiation of cisplatin-induced cytotoxicity by measuring combination index at 0.5 uM in presence of 100 uM cisplatin by MTT assay based Chou-Talalay analysis
# [13] = biological target: Histone deacetylase 3/Nuclear receptor corepressor 2 (HDAC3/NCoR2) (Homo sapiens) (UniProt O15379+Q9Y618); test: Inhibition of human recombinant full length C-terminal His-tagged HDAC3 (1 to 428 residues)/N-terminal GST-tagged NCOR2 (395 to 489 residues) expressed in baculovirus infected Sf9 insect cells at 10 uM using Boc-Lys(epsilon-acetyl)-AMC as substrate incubated for 90 mins by fluorescence assay relative to control
# [14] = biological target: T1, Class 1 histone deacetylase; test: Inhibition of class 1 HDAC in human CAL27 cells assessed as potentiation of cisplatin-induced cytotoxicity by measuring combination index at […] in presence of 10 uM cisplatin by MTT assay based Chou-Talalay analysis; assay type: cell-based; conditions: CAL-27
# [15] = biological target: T1, Class 1 histone deacetylase; test: Inhibition of class 1 HDAC in human CAL27 cells assessed as potentiation of cisplatin-induced cytotoxicity by measuring combination index at […] in presence of 1 uM cisplatin by MTT assay based Chou-Talalay analysis; assay type: cell-based; conditions: CAL-27
# [16] = biological target: T1, Class 1 histone deacetylase; test: Inhibition of class 1 HDAC in human CAL27 cells assessed as potentiation of cisplatin-induced cytotoxicity by measuring combination index at […] in presence of 0.1 uM cisplatin by MTT assay based Chou-Talalay analysis; assay type: cell-based; conditions: CAL-27
# [17] = biological target: T1, Class 1 histone deacetylase; test: Inhibition of class 1 HDAC in human CAL27 cells assessed as potentiation of cisplatin-induced cytotoxicity by measuring combination index at 1 uM in presence of 10 uM cisplatin by MTT assay based Chou-Talalay analysis; assay type: cell-based; conditions: CAL-27
# [18] = biological target: T1, Class 1 histone deacetylase; test: Inhibition of class 1 HDAC in human CAL27 cells assessed as potentiation of cisplatin-induced cytotoxicity by measuring combination index at 1 uM in presence of 1 uM cisplatin by MTT assay based Chou-Talalay analysis; assay type: cell-based; conditions: CAL-27
# [19] = biological target: T1, Class 1 histone deacetylase; test: Inhibition of class 1 HDAC in human CAL27 cells assessed as potentiation of cisplatin-induced cytotoxicity by measuring combination index at 1 uM in presence of […] cisplatin by MTT assay based Chou-Talalay analysis; assay type: cell-based; conditions: CAL-27
# [20] = biological target: T1, Class 1 histone deacetylase; test: Inhibition of class 1 HDAC in human CAL27 cells assessed as potentiation of cisplatin-induced cytotoxicity by measuring combination index at 1 uM in presence of 0.10 uM cisplatin by MTT assay based Chou-Talalay analysis; assay type: cell-based; conditions: CAL-27
# [21] = biological target: T1, Class 1 histone deacetylase; test: Inhibition of class 1 HDAC in human Cal27CisR cells assessed as potentiation of cisplatin-induced cytotoxicity by measuring combination index at 1 uM in presence of 1 uM cisplatin by MTT assay based Chou-Talalay analysis; assay type: cell-based
# [22] = biological target: T1, Class 1 histone deacetylase; test: Inhibition of class 1 HDAC in human Cal27CisR cells assessed as potentiation of cisplatin-induced cytotoxicity by measuring combination index at 1 uM in presence of 10 uM cisplatin by MTT assay based Chou-Talalay analysis; assay type: cell-based
# [23] = biological target: T1, Class 1 histone deacetylase; test: Inhibition of class 1 HDAC in human Cal27CisR cells assessed as potentiation of cisplatin-induced cytotoxicity by measuring combination index at 1 uM in presence of 32 uM cisplatin by MTT assay based Chou-Talalay analysis; assay type: cell-based
# [24] = biological target: T1, Class 1 histone deacetylase; test: Inhibition of class 1 HDAC in human Cal27CisR cells assessed as potentiation of cisplatin-induced cytotoxicity by measuring combination index at 1 uM in presence of 100 uM cisplatin by MTT assay based Chou-Talalay analysis; assay type: cell-based
# [25] = biological target: T1, Class 1 histone deacetylase; test: Inhibition of class 1 HDAC in human Cal27CisR cells assessed as potentiation of cisplatin-induced cytotoxicity by measuring combination index at […] in presence of […] cisplatin by MTT assay based Chou-Talalay analysis; assay type: cell-based
# [26] = biological target: T1, Class 1 histone deacetylase; test: Inhibition of class 1 HDAC in human Cal27CisR cells assessed as potentiation of cisplatin-induced cytotoxicity by measuring combination index at […] in presence of 32 uM cisplatin by MTT assay based Chou-Talalay analysis; assay type: cell-based
# [27] = biological target: T1, Class 1 histone deacetylase; test: Inhibition of class 1 HDAC in human Cal27CisR cells assessed as potentiation of cisplatin-induced cytotoxicity by measuring combination index at […] in presence of 100 uM cisplatin by MTT assay based Chou-Talalay analysis; assay type: cell-based
# [28] = biological target: T1, Class 1 histone deacetylase; test: Inhibition of class 1 HDAC in human Cal27CisR cells assessed as potentiation of cisplatin-induced cytotoxicity by measuring combination index at 5 uM in presence of 10 uM cisplatin by MTT assay based Chou-Talalay analysis; assay type: cell-based
# [29] = system: CAL-27; test: Induction of apoptosis in human CAL27 cells assessed as accumulation at sub-G1 phase at […] after 48 hrs by propidium iodide staining based flow cytometry relative to control; assay type: functional
# [30] = biological target: T1, Class 1 histone deacetylase; test: Inhibition of class 1 HDAC in human Cal27CisR cells assessed as potentiation of cisplatin-induced cytotoxicity by measuring cisplatin IC50 at […] preincubated for 48 hrs followed by cisplatin addition and measured after 72 hrs by MTT assay (reference value: 63.2 uM); assay type: cell-based
# T1 sequence (O15379 whole entry, looked up): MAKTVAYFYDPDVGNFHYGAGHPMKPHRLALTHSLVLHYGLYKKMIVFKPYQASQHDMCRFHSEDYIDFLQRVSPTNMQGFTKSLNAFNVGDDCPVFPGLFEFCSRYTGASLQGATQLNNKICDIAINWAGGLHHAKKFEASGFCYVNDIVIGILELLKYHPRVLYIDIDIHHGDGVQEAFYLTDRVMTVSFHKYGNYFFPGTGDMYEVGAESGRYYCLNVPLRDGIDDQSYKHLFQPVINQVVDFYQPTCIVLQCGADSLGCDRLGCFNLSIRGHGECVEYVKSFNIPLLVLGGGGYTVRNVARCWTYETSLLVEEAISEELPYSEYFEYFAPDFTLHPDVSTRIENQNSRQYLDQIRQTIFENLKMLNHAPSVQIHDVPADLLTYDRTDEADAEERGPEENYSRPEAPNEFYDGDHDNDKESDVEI
# T1 sequence (Q13547 whole entry, looked up): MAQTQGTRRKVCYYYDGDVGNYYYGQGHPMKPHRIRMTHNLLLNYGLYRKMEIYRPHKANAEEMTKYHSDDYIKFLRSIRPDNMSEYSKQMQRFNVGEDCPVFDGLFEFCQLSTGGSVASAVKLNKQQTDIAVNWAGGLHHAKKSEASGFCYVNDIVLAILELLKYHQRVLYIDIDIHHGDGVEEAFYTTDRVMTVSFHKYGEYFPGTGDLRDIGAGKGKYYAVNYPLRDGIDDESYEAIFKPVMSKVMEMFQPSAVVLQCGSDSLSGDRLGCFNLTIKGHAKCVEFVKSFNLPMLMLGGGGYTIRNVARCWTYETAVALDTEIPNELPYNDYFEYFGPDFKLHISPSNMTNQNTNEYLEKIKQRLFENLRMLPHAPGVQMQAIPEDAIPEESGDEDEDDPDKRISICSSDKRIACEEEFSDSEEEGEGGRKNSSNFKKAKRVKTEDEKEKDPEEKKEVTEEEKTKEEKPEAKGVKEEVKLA
# T1 sequence (Q92769 whole entry, looked up): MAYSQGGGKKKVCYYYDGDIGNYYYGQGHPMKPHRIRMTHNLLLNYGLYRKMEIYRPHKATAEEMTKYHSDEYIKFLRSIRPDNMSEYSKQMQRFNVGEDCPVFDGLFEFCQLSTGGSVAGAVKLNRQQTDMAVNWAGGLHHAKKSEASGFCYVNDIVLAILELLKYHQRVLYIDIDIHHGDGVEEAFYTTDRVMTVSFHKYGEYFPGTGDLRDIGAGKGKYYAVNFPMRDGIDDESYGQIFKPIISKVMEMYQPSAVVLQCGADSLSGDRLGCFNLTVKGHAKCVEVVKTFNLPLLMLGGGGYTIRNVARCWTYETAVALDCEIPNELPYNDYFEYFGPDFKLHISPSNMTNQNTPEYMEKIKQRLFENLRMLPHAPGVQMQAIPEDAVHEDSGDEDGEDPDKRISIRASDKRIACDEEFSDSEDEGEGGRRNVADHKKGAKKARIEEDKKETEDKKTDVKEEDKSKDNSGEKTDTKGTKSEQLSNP
# T1 sequence (Q9BY41 whole entry, looked up): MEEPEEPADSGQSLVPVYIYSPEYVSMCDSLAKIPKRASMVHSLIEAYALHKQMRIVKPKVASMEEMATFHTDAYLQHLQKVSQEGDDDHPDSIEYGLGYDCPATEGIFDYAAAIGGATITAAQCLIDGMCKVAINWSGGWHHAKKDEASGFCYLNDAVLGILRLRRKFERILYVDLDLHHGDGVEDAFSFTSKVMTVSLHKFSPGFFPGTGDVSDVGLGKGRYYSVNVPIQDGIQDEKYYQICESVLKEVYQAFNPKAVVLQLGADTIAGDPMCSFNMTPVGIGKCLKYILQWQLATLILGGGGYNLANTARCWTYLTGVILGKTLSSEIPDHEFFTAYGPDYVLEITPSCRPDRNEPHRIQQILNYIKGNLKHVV
# Histone deacetylase 3/Nuclear receptor corepressor 2 (HDAC3/NCoR2), sequence (O15379 whole entry): as the sequence (O15379 whole entry, looked up) above
# Histone deacetylase 3/Nuclear receptor corepressor 2 (HDAC3/NCoR2), sequence (Q9Y618 whole entry, further chain): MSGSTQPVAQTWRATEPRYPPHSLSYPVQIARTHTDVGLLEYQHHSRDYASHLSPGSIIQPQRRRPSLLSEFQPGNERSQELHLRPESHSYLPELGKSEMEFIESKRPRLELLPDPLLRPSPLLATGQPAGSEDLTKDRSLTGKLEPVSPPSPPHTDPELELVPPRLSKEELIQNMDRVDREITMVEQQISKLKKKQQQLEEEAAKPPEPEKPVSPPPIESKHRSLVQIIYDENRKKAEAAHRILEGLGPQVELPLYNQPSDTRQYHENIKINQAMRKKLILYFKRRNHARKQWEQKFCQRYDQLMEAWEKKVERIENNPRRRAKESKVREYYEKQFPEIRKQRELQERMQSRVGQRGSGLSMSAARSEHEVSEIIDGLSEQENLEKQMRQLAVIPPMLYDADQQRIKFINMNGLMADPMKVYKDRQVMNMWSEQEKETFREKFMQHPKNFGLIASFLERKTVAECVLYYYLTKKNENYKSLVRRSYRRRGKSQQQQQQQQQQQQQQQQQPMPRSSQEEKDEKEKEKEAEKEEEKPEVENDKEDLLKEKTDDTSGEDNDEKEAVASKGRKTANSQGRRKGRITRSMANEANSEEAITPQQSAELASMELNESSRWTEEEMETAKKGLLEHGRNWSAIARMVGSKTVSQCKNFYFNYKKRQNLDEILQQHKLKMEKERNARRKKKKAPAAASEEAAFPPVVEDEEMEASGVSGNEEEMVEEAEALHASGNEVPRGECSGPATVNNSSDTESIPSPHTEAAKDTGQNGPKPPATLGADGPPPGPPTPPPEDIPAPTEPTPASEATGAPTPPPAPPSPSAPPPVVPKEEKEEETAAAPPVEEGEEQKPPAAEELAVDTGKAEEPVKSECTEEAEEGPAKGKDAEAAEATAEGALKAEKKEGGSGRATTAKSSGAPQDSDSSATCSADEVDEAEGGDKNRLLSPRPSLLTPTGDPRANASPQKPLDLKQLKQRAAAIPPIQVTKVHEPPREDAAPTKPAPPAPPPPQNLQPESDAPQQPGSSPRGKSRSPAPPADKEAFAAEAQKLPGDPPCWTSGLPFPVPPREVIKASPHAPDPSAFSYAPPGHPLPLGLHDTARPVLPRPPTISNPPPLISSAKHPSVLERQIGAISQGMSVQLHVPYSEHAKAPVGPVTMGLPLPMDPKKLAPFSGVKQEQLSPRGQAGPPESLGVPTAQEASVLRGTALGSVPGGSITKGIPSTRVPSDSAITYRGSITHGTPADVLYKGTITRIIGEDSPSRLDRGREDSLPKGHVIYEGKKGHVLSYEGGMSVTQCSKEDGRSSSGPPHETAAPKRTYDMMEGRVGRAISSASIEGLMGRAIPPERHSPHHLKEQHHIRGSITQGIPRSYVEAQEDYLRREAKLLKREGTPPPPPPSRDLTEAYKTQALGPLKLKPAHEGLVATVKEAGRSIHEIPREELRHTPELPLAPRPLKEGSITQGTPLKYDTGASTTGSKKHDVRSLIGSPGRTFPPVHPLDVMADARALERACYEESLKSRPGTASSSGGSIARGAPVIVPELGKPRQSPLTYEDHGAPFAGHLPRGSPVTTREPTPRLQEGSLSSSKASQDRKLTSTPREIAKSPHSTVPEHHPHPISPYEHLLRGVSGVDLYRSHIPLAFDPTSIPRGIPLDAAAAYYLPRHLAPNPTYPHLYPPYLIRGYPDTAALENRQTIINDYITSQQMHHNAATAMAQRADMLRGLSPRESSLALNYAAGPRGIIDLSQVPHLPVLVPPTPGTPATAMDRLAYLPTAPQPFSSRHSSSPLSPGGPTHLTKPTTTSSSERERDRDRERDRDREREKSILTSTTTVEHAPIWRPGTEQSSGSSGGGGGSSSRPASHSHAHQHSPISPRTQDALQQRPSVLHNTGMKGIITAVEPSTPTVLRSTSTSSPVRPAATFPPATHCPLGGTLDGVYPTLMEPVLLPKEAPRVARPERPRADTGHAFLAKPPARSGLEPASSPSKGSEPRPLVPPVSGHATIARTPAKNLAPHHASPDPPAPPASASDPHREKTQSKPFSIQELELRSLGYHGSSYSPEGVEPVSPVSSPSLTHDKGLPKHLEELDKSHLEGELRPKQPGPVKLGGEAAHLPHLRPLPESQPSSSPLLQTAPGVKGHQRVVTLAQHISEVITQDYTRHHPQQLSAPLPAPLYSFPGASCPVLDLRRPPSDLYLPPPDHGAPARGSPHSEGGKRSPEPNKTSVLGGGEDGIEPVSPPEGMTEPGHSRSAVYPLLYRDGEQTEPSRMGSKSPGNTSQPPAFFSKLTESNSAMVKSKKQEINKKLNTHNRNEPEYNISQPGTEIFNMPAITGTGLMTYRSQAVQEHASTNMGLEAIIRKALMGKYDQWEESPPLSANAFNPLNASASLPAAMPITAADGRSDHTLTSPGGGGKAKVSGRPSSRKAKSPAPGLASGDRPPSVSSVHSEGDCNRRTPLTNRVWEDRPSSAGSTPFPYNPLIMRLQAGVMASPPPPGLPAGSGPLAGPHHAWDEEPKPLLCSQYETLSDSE
# Histone deacetylase 2, sequence (Q92769 whole entry): as the sequence (Q92769 whole entry, looked up) above
SMILES,IC50 [1] [nM],IC50 [2] [nM],IC50 [3] [nM],CI [4],CI [5],CI [6],CI [8],CI [9],CI [10],CI [11],CI [12],inhibition [13] [%],CI [14],CI [15],CI [16],CI [17],CI [18],CI [19],CI [20],CI [21],other results
CN(C)c1ccc(C(=O)N(CC(=O)NCc2ccccc2)Cc2ccc(C(=O)Nc3ccccc3N)cc2)cc1,586,283,2400,0.16,0.07,0.07,0.33,0.25,0.12,0.03,0.07,,,,,,,,,,CI [7]: < 0.2
Cc1cc(C)cc(C(=O)N(CCCCCC(=O)Nc2cc(-c3ccccc3)ccc2N)CC(=O)NCc2ccccc2)c1,,1810,17100,,,,,,,,,20,0.12,< 0.2,< 0.2,0.53,< 0.2,< 0.2,< 0.2,< 0.2,CI [22]: < 0.2; CI [23]: < 0.2; CI [24]: 0.06; CI [25]: < 0.2; CI [26]: 0.74; CI [27]: 0.09; CI [28]: 0.1
Cc1cc(C)cc(C(=O)N(CC(=O)NCc2ccccc2)Cc2ccc(C(=O)Nc3cc(-c4ccccc4)ccc3N)cc2)c1,> 10000,,,0.59,0.21,0.18,0.77,< 0.2,0.76,< 0.2,0.1,< 15,0.08,0.23,0.39,0.16,0.46,0.52,0.42,< 0.2,CI [22]: 0.5; CI [23]: 0.27; CI [24]: 0.08; CI [25]: 0.89; CI [26]: 0.18; CI [27]: 0.19; Activity [29]: 6.27%; IC50 [30]: 12000 nM
